In patent US20060004029A1, “Nitrogen-containing aromatic derivatives” (priority 2003, published 2006):
Read-outs that look alike come from different tables or passages of the source.

Assays:
VEGFR2 = target: T1, VEGFR2 (Homo sapiens, UniProt P35968); test: Inhibition against receptor tyrosine kinase activity (HTRF), VEGFR2; type: biochemical
T1 construct: coding for the cytoplasmic domain, beginning with lysine 791 and including the termination codon; made in house; host or cells: Sf9 insect cells, baculovirus (pFastBacHis)
T1 sequence (P35968 786-1356 limits assumed): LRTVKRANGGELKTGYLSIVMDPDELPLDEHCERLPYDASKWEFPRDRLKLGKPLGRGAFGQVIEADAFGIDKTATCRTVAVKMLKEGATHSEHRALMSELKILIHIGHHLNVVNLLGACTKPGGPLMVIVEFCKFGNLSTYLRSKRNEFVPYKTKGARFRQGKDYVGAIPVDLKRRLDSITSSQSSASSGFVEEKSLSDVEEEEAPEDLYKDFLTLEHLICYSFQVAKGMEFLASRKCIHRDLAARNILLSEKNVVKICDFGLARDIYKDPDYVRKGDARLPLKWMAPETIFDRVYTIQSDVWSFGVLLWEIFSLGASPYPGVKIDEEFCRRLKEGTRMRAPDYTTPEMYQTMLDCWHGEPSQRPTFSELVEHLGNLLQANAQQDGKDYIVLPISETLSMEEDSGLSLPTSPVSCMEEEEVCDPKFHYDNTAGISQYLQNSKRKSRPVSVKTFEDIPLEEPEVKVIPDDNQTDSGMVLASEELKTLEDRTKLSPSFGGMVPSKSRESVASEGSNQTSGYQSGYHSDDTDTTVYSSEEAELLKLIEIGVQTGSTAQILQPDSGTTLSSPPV
Procedure: This assay is used to determine inhibition of a test substance on tyrosine kinase activity. […] Expression in an appropriate expression system can produce a polypeptide with tyrosine kinase activity. […] The recombinant construct was transfected into insect cells (Spondoptea frugiperda9 (Sf9)) to prepare a recombinant Baculovirus.
For expression of the VEGFR2 tyrosine kinase, Sf9 cells were infected with the VEGFR2 recombinant virus and collected after 48 hours. The collected cells were rinsed with ice-cooled phosphate buffered saline (PBS) and then resuspended using 20 ml of ice-cooled Lysis Buffer (50 mM Tris-HCl (pH 8.5), 5 mM 2-mercaptoethanol, 100 mM KCl, 1 mM phenylmethylsulfonyl fluoride, 1% (v/v) NP-40) per 1.5×10^8 cells. The suspension was centrifuged at 12,000 rpm for 30 minutes at 4° C. and the supernatant was obtained. The supernatant was added to a Ni-NTA agarose column (3 ml, purchased from Qiagen) equilibrated with Buffer A {20 mM Tris-HCl (pH 8.5), 5 mM 2-mercaptoethanol, 500 mM KCl, 20 mM imidazole, 10% (v/v) glycerol}. The column was washed with 30 ml of Buffer A, and then with 6 ml of Buffer B {20 mM Tris-HCl (pH 8.5), 5 mM 2-mercaptoethanol, 1M KCl, 10% (v/v) glycerol}, and finally with 6 ml of Buffer A. After washing, it was eluted with 6 ml of Buffer C {20 mM Tris-HCl (pH 8.5), 5 mM 2-mercaptoethanol, 100 mM KCl, 100 mM imidazole, 10% (v/v) glycerol}. The eluate was placed on a dialysis membrane (purchased from Spectrum Laboratories) and dialyzed with a dialysis buffer {20 mM Tris-HCl (pH 7.5), 10% (v/v) glycerol, 1 mM dithiothreitol, 0.1 mM Na3VO4, 0.1 mM EGTA}. […] Using the same method for the cytoplasmic domains of FGFR1, PDGFRβ and HGFR yielded respective recombinant proteins fused with 6 histidine residues at the N-terminal (His6-FGFR1, His6-PDGFRβ or His6-HGFR).
The tyrosine kinase reaction was conducted as follows. […] Next, 10 μl of 4 μM ATP (diluted with distilled water) was added prior to incubation at 30° C. for 10 minutes, and then 10 μl of 500 mM EDTA (pH 8.0) was added.
The tyrosine phosphorylation rate for the biotin-poly(GT) was expressed as the delta F % value as described in the HTRF Standard Experiment Methods text by CIS Diagnostics Co. The delta F % value in the presence of the test substance was determined as a ratio (%) with the delta F % value with addition of His6-VEGFR2 in the absence of the test substance defined as 100% and the delta F % value in the absence of both the test substance and His6-VEGFR2 defined as 0%.

FGFR1 = target: T2, FGFR1 (Homo sapiens, UniProt P11362); test: Inhibition against receptor tyrosine kinase activity (HTRF), FGFR1; type: biochemical
T2 construct: made in house; host or cells: Sf9 insect cells, baculovirus (pFastBacHis), by the same method as VEGFR2
T2 sequence (P11362 398-822 limits assumed): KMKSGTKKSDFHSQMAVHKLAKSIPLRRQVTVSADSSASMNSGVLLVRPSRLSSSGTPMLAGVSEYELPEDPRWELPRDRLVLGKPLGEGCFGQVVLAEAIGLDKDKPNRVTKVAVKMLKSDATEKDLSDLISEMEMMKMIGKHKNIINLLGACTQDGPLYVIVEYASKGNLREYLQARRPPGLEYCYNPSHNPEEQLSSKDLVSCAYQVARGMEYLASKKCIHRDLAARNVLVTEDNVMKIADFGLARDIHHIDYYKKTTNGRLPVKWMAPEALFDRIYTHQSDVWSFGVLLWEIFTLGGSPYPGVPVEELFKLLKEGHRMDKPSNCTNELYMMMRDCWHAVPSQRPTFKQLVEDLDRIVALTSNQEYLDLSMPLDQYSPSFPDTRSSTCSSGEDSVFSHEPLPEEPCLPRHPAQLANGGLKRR
Source text: This assay is used to determine inhibition of a test substance on tyrosine kinase activity. DNA coding for the cytoplasmic domain of VEGFR2 is obtained by total cDNA synthesis (Edwards M, International Biotechnology Lab 5(3), 19-25, 1987) or by cloning. Expression in an appropriate expression system can produce a polypeptide with tyrosine kinase activity. […] For VEGFR2 (GenBank Accession No. L04947), the 1.7 kb DNA fragment described by Terman et al. (Oncogene, 6(9), 1677-1683, 1991), coding for the cytoplasmic domain, beginning with lysine 791 and including the termination codon, was isolated from a human placental cDNA library (purchased from Clontech Laboratories, Inc.) and cloned in a Baculovirus expression vector (pFastBacHis, purchased from GIBCO BRL). The recombinant construct was transfected into insect cells (Spondoptea frugiperda9 (Sf9)) to prepare a recombinant Baculovirus. (Instructions for preparation and use of recombinant Baculovirus may be found in standard texts, such as “Bac-To-Bac Baculovirus Expression System” (GIBCO BRL).) The cytoplasmic fragment starting from lysine 398 (FGFR1, GenBank Accession No. X52833), the cytoplasmic fragment starting from lysine 558 (PDGFRβ, GenBank Accession No. M21616) or the cytoplasmic fragment starting from lysine 974 (HGFR, GenBank Accession No. J02958) may be cloned and expressed by the same method for use in assays for other tyrosine kinases. EGFR was purchased from Sigma Co. (Product No. E-2645).
For expression of the VEGFR2 tyrosine kinase, Sf9 cells were infected with the VEGFR2 recombinant virus and collected after 48 hours. The collected cells were rinsed with ice-cooled phosphate buffered saline (PBS) and then resuspended using 20 ml of ice-cooled Lysis Buffer (50 mM Tris-HCl (pH 8.5), 5 mM 2-mercaptoethanol, 100 mM KCl, 1 mM phenylmethylsulfonyl fluoride, 1% (v/v) NP-40) per 1.5×10^8 cells. The suspension was centrifuged at 12,000 rpm for 30 minutes at 4° C. and the supernatant was obtained. The supernatant was added to a Ni-NTA agarose column (3 ml, purchased from Qiagen) equilibrated with Buffer A {20 mM Tris-HCl (pH 8.5), 5 mM 2-mercaptoethanol, 500 mM KCl, 20 mM imidazole, 10% (v/v) glycerol}. The column was washed with 30 ml of Buffer A, and then with 6 ml of Buffer B {20 mM Tris-HCl (pH 8.5), 5 mM 2-mercaptoethanol, 1M KCl, 10% (v/v) glycerol}, and finally with 6 ml of Buffer A. After washing, it was eluted with 6 ml of Buffer C {20 mM Tris-HCl (pH 8.5), 5 mM 2-mercaptoethanol, 100 mM KCl, 100 mM imidazole, 10% (v/v) glycerol}. The eluate was placed on a dialysis membrane (purchased from Spectrum Laboratories) and dialyzed with a dialysis buffer {20 mM Tris-HCl (pH 7.5), 10% (v/v) glycerol, 1 mM dithiothreitol, 0.1 mM Na3VO4, 0.1 mM EGTA}. After dialysis, it was supplied for SDS-electrophoresis, and the recombinant protein (His6-VEGFR2, cytoplasmic domain of VEGFR2 fused with 6 histidine residues at the N-terminus) detected at a molecular weight of approximately 100 kDa with Coumassie Brilliant Blue staining was assayed using BSA (bovine serum albumin, purchased from Sigma Co.) as the standard substance, and stored at −80° C. until use. Using the same method for the cytoplasmic domains of FGFR1, PDGFRβ and HGFR yielded respective recombinant proteins fused with 6 histidine residues at the N-terminal (His6-FGFR1, His6-PDGFRβ or His6-HGFR).
The tyrosine kinase reaction was conducted as follows. In the case of VEGFR2, for example, 10 μl of a kinase reaction solution {200 mM Hepes (pH 7.4), 80 mM MgCl2, 16 mM MnCl2, 2 mM Na3VO4}, 250 ng of biotin-bound poly(Glu4:Tyr1) (biotin-poly(GT), purchased from CIS Diagnostics Co.) (6 μl of a 15-fold dilution with distilled water), 15 ng of His6-VEGFR2 (10 μl of a 240-fold dilution with 0.4% BSA solution) and the test substance dissolved in dimethyl sulfoxide (4 μl of a 100-fold dilution with 0.1% BSA solution) were added into each well of a 96-well round-bottom plate (NUNC Co., Product No. 163320), to a total of 30 μl. […]

[1] = His6-VEGFR2 cytoplasmic domain, biotin-poly(GT), HTRF, read-out: VEGFR2 kinase IC50
[2] = His6-FGFR1 cytoplasmic domain, biotin-poly(GT), HTRF, read-out: FGFR1 kinase IC50

SMILES | IC50 (VEGFR2; [1]) [nM] | IC50 (FGFR1; [2]) [nM] | IC50 (VEGFR2) [nM] | IC50 (FGFR1) [nM]
CNC(=O)n1ccc2cc(Oc3ccnc(NC(=O)NCC(=O)N4CCCC4)c3)ccc21 [Example 7, 5-(2-(3-(2-Oxo-2-(pyrrolidin-1-yl)ethyl)ureido)pyridin-4-yloxy)-1H-indole-1-carboxylic acid methylamide] | 8 | 26 |  | 
CNC(=O)n1ccc2cc(Oc3ccnc(NC(=O)NCC(N)=O)c3)ccc21 [Example 11, 5-(2-(3-Carbamoylmethylureido)pyridin-4-yloxy)-1H-indole-1-carboxylic acid methylamide] | 3 | 47 |  | 
CNC(=O)n1ccc2cc(Oc3ccnc(NC(=O)N[C@@H](CO)C(=O)N4CCCC4)c3)ccc21 [Example 18, 5-(2-(3-((1S)-1-Hydroxymethyl-2-oxo-2-pyrrolidin-1-ylethyl)ureido)pyridin-4-yloxy)-1H-indole-1-carboxylic acid methylamide] | 3 | 70 |  | 
CNC(=O)n1ccc2cc(Oc3ccnc(NC(=O)NCCCC(=O)N4CCCC4)c3)ccc21 [Example 32, 5-(2-(3-(4-Oxo-4-(pyrrolidin-1-yl)butyl)ureido)pyridin-4-yloxy)-1H-indole-1-carboxylic acid methylamide] | 9.3 | 16 |  | 
CNC(=O)n1ccc2cc(Oc3ccnc(NC(=O)NCCCC(=O)NC4CC4)c3)ccc21 [Example 33, 5-(2-(3-(3-(Cyclopropylcarbamoyl)propyl)ureido)pyridin-4-yloxy)-1H-indole-1-carboxylic acid methylamide] | 7.1 | 12 |  | 
CNC(=O)n1ccc2cc(Oc3ccnc(NC(=O)NCCCC(=O)N4CCC(C)(O)CC4)c3)ccc21 [Example 34, 5-(2-(3-(4-(4-Hydroxy-4-methylpiperidin-1-yl)-4-oxobutyl)ureido)pyridin-4-yloxy)-1H-indole-1-carboxylic acid methylamide] | 8.4 | 22 |  | 
CNC(=O)CCCNC(=O)Nc1cc(Oc2ccc3c(ccn3C(=O)NC)c2)ccn1 [Example 36, 5-(2-(3-(3-(Methylcarbamoyl)propyl)ureido)pyridin-4-yloxy)-1H-indole-1-carboxylic acid methylamide] | 3.4 | 16 |  | 
CNC(=O)n1ccc2cc(Oc3ccnc(NC(=O)N4CCCC4)c3)ccc21 [Example 37, N1-Methyl-5-(2-(pyrrolidin-1-ylcarbonyl)amino-4-pyridyl)oxy-1H-1-indolecarboxamide] | 4.8 | 1.2 |  | 
CNC(=O)n1ccc2cc(Oc3ccnc(NC(=O)N4CCC(=O)CC4)c3)ccc21 [Example 40, N1-methyl-5-(2-(4-oxopiperidin-1-ylcarbonyl)amino-4-pyridyl)oxy-1H-1-indolecarboxamide] |  |  | 5.7 | 6.9
CNC(=O)CCCC1CCN(C(=O)Nc2cc(Oc3ccc4c(ccn4C(=O)NC)c3)ccn2)CC1 [Example 43, 5-(2-(((4-(3-Methylcarbamoylpropyl)piperidin-1-yl)carbonyl)amino)pyridin-4-yloxy)-1H-indole-1-carboxylic acid methylamide] | 6.4 | 18 |  | 
CNC(=O)n1ccc2cc(Oc3ccnc(NC(=O)N4CCC(CCCC(N)=O)CC4)c3)ccc21 [Example 44, 5-(2-(((4-(3-Carbamoylpropyl)piperidin-1-yl)carbonyl)amino)pyridin-4-yloxy)-1H-indole-1-carboxylic acid methylamide] | 7.7 | 14 |  | 
CNC(=O)n1ccc2cc(Oc3ccnc(NC(=O)NCCCS(C)(=O)=O)c3)ccc21 [Example 50, N1-Methyl-5-(2-((3-methylsulfonylpropylamino)carbonyl)amino-4-pyridyl)-oxy-1H-1-indolecarboxamide] | 5 | 13 |  | 
O=C(Nc1cc(Oc2ccc3c(ccn3C(=O)NC3CC3)c2)ccn1)N1CCC(N2CCCC2)CC1 [Example 68, N1-Cyclopropyl-5-(2-(((4-(pyrrolidin-1-yl)piperidin-1-yl)carbonyl)amino)pyridin-4-yloxy)-1H-1-indolecarboxamide] | 37 | 52 |  | 
CCNC(=O)n1ccc2cc(Oc3ccnc(NC(=O)N4CCC(O)CC4)c3)ccc21 [Example 79, N1-Ethyl-5-(2-((4-hydroxypiperidin-1-yl)carbonyl)amino-4-pyridyl)oxy-1H-1-indolecarboxamide] | 9.8 | 25 |  | 
CCNC(=O)n1ccc2cc(Oc3ccnc(NC(=O)N4CCCC4)c3)ccc21 [Example 81, N1-Ethyl-5-((2-((pyrrolidin-1-ylcarbonyl)amino)-4-pyridyl)oxy)-1H-1-indolecarboxamide] | 12 | 38 |  | 
CCNC(=O)n1ccc2cc(Oc3ccnc(NC(=O)N4CCOCC4)c3)ccc21 [Example 82, N4-(4-((1-(Ethylamino)carbonyl-1H-5-indolyl)oxy)-2-pyridyl)-4-morpholinecarboxamide] | 15 | 24 |  | 
